Article PMC10692375 (Acta Pharmaceutica Sinica. B, 2023)

System: 22Rv1 xenografts
Test: 22Rv1 xenograft model
Assay type: in vivo, mice
Settings: DD1-Br 0.1 mg/kg i.p., ENZ 10 mg/kg p.o., alone or combined, 5 times a week

In the case of `CNC(=O)c1ccc(N2C(=S)N(c3ccc(C#N)c(C(F)(F)F)c3)C(=O)C2(C)C)cc1F` [ENZ, enzalutamide], the tumor growth is reported as “did not show significant effect”.
